The target of data set [1] is T1, CYP3A4 (Homo sapiens, UniProt P08684).
T1 construct: purchased Invitrogen Corporation (Vivid CYP450 Screening Kit)
Description: Cytochrome P450 (CYP450) inhibition assay, fluorescence-based. The settings on record: recombinant CYP3A4 (P450 Baculosomes), probe Vivid substrate (fluorogenic). It is filed as in vitro ADME.

T1 sequence (P08684 whole entry): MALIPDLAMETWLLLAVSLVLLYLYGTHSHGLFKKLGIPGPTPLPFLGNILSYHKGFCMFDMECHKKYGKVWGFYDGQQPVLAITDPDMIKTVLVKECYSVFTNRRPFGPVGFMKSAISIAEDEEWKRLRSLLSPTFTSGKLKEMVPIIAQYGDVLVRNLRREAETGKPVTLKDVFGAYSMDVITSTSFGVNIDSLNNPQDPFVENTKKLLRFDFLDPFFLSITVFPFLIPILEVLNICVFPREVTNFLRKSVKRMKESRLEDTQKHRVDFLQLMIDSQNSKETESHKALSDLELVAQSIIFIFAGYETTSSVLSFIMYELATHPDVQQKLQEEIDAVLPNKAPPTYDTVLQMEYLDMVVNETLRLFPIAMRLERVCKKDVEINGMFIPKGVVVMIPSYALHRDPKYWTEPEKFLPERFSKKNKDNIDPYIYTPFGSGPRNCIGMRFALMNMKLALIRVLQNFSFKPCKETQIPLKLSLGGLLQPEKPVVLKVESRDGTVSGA

For `CC(C)(C)OC(=O)N1CC[C@@H](Nc2ccc(CN3C(=O)C4(COc5cc6c(cc54)OCO6)c4ccccc43)cc2)C1` (stereo partly drawn) [Example 5, tert-butyl (3R)-3-({4-[(2′-oxospiro[furo[2,3-f][1,3]benzodioxole-7,3′-indol]-1′(2′H)-yl)methyl]phenyl}-amino)pyrrolidine-1-carboxylate], the melting point is 115 to 118 °C.
Same read-out and setting: then `O=C1N(Cc2ccc(N[C@@H]3CCNC3)cc2)c2ccccc2C12COc1cc3c(cc12)OCO3` (stereo partly drawn) [Example 6, 1′-{4-[(3R)-pyrrolidin-3-ylamino]benzyl}spiro[furo[2,3-f][1,3]benzodioxole-7,3′-indol]-2′(1′H)-one], with 118 to 121 °C.
As for `O=C(O)COc1ccc(CN2C(=O)C3(COc4cc5c(cc43)OCCO5)c3ccccc32)cc1` (stereo not shown) [Example 15.2, {4-[(2′-oxo-2,3-dihydrospiro[furo[2,3-g][1,4]benzodioxine-8,3′-indol]-1′(2′H)-yl)methyl]phenoxy}acetic acid], the melting point is 223 to 224 °C. Moreover, in data set [1], the inhibition at 10 µM is < 50%.
On the same counts, the results for `O=C(O)COc1ccc(CN2C(=O)C3(COc4cc5c(cc43)CCO5)c3ccccc32)cc1` (stereo not shown) [Example 15.1, {4-[(2′-oxo-5,6-dihydrospiro[benzo[1,2-b:5,4-b′]difuran-3,3′-indol]-1′(2′H)-yl)methyl]phenoxy}acetic acid] are 265 to 266 °C and < 50%.
`Cl.O=C1N(Cc2ccc(N[C@@H]3CCNC3)cc2)c2ccccc2C12COc1cc3c(cc12)OCO3` (stereo partly shown) displayed a melting point of 190 to 195 °C.

The values above are taken from patent US8101647B2, “Spiro-oxindole compounds and their use as therapeutic agents” (Xenon Pharmaceuticals Inc., priority 2008, dated 2012).
